Laboratory results: patent publication US7632845B2, “Phenyl quinolines and their use as estrogenic agents” (Wyeth, priority 2003, dated 2009)

Tests used:
ERβ = biological target: T1, ERβ (Homo sapiens, UniProt Q92731); experiment: Competition with [3H]-17β-estradiol for ERβ ligand binding domain; settings: for IC50: crude E. coli lysate expressing human ERβ LBD (D, E, & F), 2 nM [3H]-17β-estradiol, 5-15 hours at room temperature; for α/β: receptor selectivity, ratio ERα IC50 / ERβ IC50
T1 construct: made in house; host or cells: E. coli
T1 sequence (Q92731 264-498 limits assumed): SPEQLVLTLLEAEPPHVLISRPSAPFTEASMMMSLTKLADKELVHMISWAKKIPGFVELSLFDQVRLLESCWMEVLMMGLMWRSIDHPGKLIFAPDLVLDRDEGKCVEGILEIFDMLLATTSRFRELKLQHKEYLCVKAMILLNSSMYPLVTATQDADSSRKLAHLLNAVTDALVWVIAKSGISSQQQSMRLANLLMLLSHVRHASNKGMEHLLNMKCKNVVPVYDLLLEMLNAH
Method: (§1) Representative examples of the invention were evaluated for their ability to compete with 17β-estradiol for both ERα and ERβ. This test procedure provides the methodology for one to determine whether a particular compound binds to the estrogen receptor (and is therefore “estrogenic”) and whether there is selectivity for ERα or ERβ. […] 17β-estradiol is included as a standard reference for compalison. The procedure used is briefly described below. A crude lysate of E. coli expressing the estrogen receptor ligand binding domains (D, E, & F) of human ERα or ERβ was prepared. Both receptors and compounds were diluted in 1× Dulbecco's PBS (DPBS) supplemented with 1 mM EDTA. Using a high binding masked microtiter plate, 100 uL of receptor (1 uG/well) was combined with 2 nM [^3H]-17β-estradiol and various concentrations of compound. After between 5 and 15 hours at room temperature, the plates were washed with DPBS/1 mM EDTA and bound radioactivity determined by liquid scintillation counting.

ERα = biological target: T2, ERα (Homo sapiens, UniProt P03372); experiment: Competition with [3H]-17β-estradiol for ERα ligand binding domain; settings: crude E. coli lysate expressing human ERα LBD (D, E, & F); 2 nM [3H]-17β-estradiol; 5-15 hours at room temperature
T2 construct: made in house; host or cells: E. coli
T2 sequence (P03372 311-547 limits assumed): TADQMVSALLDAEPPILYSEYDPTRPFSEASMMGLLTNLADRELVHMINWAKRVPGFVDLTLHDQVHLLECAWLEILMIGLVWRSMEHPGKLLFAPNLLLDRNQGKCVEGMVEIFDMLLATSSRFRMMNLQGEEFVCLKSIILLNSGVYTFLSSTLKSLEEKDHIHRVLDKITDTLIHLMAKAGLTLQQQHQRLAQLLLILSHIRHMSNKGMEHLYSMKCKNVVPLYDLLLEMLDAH
Method: as §1

Compound | IC50 (ERβ) [nM] | α/β (ERβ) | IC50 (ERα) [nM]
Oc1ccc(-c2cc(Cl)c3cc(O)ccc3n2)cc1 [Cpd 5a, 4-Chloro-2-(4-hydroxyphenyl)quinolin-6-ol] | 4.6 | 46 | 213
Oc1ccc2nc(-c3ccc(O)c(F)c3)cc(Cl)c2c1 [Cpd 5b, 4-Chloro-2-(3-fluoro-4-hydroxyphenyl)quinolin-6-ol] |  |  | 246
Oc1ccc2nc(-c3ccc(O)c(F)c3)cc(Br)c2c1 [Cpd 6b, 4-Bromo-2-(3-fluoro-4-hydroxyphenyl)quinolin-6-ol] | 3.4 |  | 283
Oc1ccc2nc(-c3cc(F)c(O)c(F)c3)cc(Br)c2c1 [Cpd 6c, 4-Bromo-2-(3,5-difluoro-4-hydroxyphenyl)quinolin-6-ol] | 42 | 23 | 976
CC(=O)Oc1ccc2nc(-c3ccc(OC(C)=O)c(F)c3)cc(Br)c2c1 [Cpd 7, 6-Acetoxy-4-bromo-2-(3-fluoro-4-acetoxyphenyl)quinoline] | 198 | >25 | > 5000
Oc1ccc(-c2cc(I)c3cc(O)ccc3n2)cc1 [Cpd 8a, 2-(4-Hydroxyphenyl)-4-iodoquinolin-6-ol] | 2.4 | 43 | 103
Oc1ccc2nc(-c3ccc(O)c(F)c3)cc(I)c2c1 [Cpd 8b, 2-(3-Fluoro-4-hydroxyphenyl)-4-iodoquinolin-6-ol] | 5 | 73 | 365
C=Cc1cc(-c2ccc(O)c(F)c2)nc2ccc(O)cc12 [Cpd 11b, 2-(3-Fluoro-4-hydroxyphenyl)-4-vinylquinolin-6-ol] | 37 | 12 | 458
CCc1cc(-c2ccc(O)cc2)nc2ccc(O)cc12 [Cpd 12a, 4-Ethyl-2-(4-hydroxyphenyl)quinolin-6-ol] | 61 | 14 | 837
CCc1cc(-c2ccc(O)c(F)c2)nc2ccc(O)cc12 [Cpd 12b, 4-Ethyl-2-(3-fluoro-4-hydroxyphenyl)quinolin-6-ol] | 40 | 26 | 1030
C[Si](C)(C)C#Cc1cc(-c2ccc(O)cc2)nc2ccc(O)cc12 [Cpd 13a, 2-(4-Hydroxyphenyl)-4-[(trimethylsilyl)ethynyl]quinolin-6-ol] | 161 | 9 | 1510
C[Si](C)(C)C#Cc1cc(-c2ccc(O)c(F)c2)nc2ccc(O)cc12 [Cpd 13b, 2-(3-Fluoro-4-hydroxyphenyl)-4-[(trimethylsilyl)ethynyl]quinolin-6-ol] | 153 | 11 | 1690
C#Cc1cc(-c2ccc(O)cc2)nc2ccc(O)cc12 [Cpd 14a, 4-Ethynyl-2-(4-hydroxyphenyl)quinolin-6-ol] | 76 | 20 | 1500
C#Cc1cc(-c2ccc(O)c(F)c2)nc2ccc(O)cc12 [Cpd 14b, 4-Ethynyl-2-(3-fluoro-4-hydroxyphenyl)quinolin-6-ol] | 32 | 106 | 3410
Oc1ccc2nc(-c3ccc(O)c(F)c3)cc(C#Cc3ccccc3)c2c1 [Cpd 15, 2-(3-Fluoro-4-hydroxyphenyl)-4-(phenylethynyl)quinolin-6-ol] | 195 | 62 | 12000
CC(=O)c1cc(-c2ccc(O)cc2)nc2ccc(O)cc12 [Cpd 16a, 4-Acetyl-2-(4-hydroxyphenyl)quinolin-6-ol] | 211 | 14 | 2940
CC(=O)c1cc(-c2ccc(O)c(F)c2)nc2ccc(O)cc12 [Cpd 16b, 4-Acetyl-2-(3-fluoro-4-hydroxyphenyl)quinolin-6-ol] |  |  | 3370
CC(O)c1cc(-c2ccc(O)cc2)nc2ccc(O)cc12 (stereo not drawn) [Cpd 17a, 4-(1-Hydroxyethyl)-2-(4-hydroxyphenyl)quinolin-6-ol] | > 5000 |  | > 5000
